Measurements taken from patent US10322106B2, “Combinations of amisulpride and another anti-emetic for treating nausea and vomiting” (Acacia Pharma Limited, priority 2015, dated 2019).

Key:
[1] = tested on: cisplatin-induced nausea and vomiting; test: Study 1: open label, ascending dose Phase II study of intravenous amisulpride in the prevention of cisplatin-induced nausea and vomiting; assay type: in vivo, human
Method: This study was designed to find the optimum dose range of IV amisulpride for the kit and method of the invention. This was an open label, ascending dose, Phase II study to determine the minimum effective dose of intravenous amisulpride in the prevention of cisplatin-induced nausea and vomiting. The number of patients evaluated was 51. Doses of amisulpride (racemic mixture) administered were 2.5, 7.5 and 20 mg. A 20 mg dose of amisulpride was also administered with a standard dose of IV ondansetron.

[2] = tested on: chemotherapy-induced nausea and vomiting (cisplatin or cyclophosphamide with epirubicin or doxorubicin); test: Study 2: randomised, double blind Phase II study of oral amisulpride for prevention of acute and delayed phase chemotherapy-induced nausea and vomiting; assay type: in vivo, human
Method: A randomised, double blind Phase II clinical study was conducted to characterise the dose-response of oral amisulpride for the prevention of acute and delayed phase nausea and vomiting in male and female patients. The patent population consisted of adult, chemotherapy-naïve cancer patients, receiving a first infusion of either cisplatin chemotherapy at a dose of 70 mg/m^2 or greater, or a combination of cyclophosphamide (500-1500 mg/m^2) and either epirubicin (60-100 mg/m^2) or doxorubicin (40-60 mg/m^2) for breast cancer. All patients received an intravenous injection of 20 mg of amisulpride (racemic mixture) and an intravenous injection of 8-16 mg ondansetron on the day of chemotherapy administration (i.e. day 1). The oral doses of amisulpride (racemic mixture) studied, along with placebo, were 10 mg, 20 mg or 40 mg each administered once per day on days 2-4 after chemotherapy. Specifically one capsule of amisulpride or its matching placebo, were taken as early as practically possible after waking of the patients each morning on days 2, 3 and 4. […] “Delayed phase response” means complete response (composite endpoint defined as no voting/retching and no use of rescue medication) in the period 24-120 hrs after chemo. There are other benefits of using a kit of the invention compared to three-drug regimen, such as reduced side-effects and better patient compliance.

cisplatin-induced emesis = conditions: ferrets; higher dosages; cited from earlier work
[3] = oral 10 mg AMI days 2-4 after IV OND + 20 mg AMI day 1, all subjects
[4] = oral 10 mg AMI days 2-4 after IV OND + 20 mg AMI day 1, patients with acute phase CR
[5] = oral 20 mg AMI days 2-4 after IV OND + 20 mg AMI day 1, all subjects
[6] = oral 20 mg AMI days 2-4 after IV OND + 20 mg AMI day 1, patients with acute phase CR
[7] = oral 40 mg AMI days 2-4 after IV OND + 20 mg AMI day 1, all subjects
[8] = oral 40 mg AMI days 2-4 after IV OND + 20 mg AMI day 1, patients with acute phase CR

CCN1CCCC1CNC(=O)c1cc(S(=O)(=O)CC)c(N)cc1OC (racemic) [amisulpride]
No emesis (vomiting/retching) ([1]; 2.5 mg IV amisulpride): 0/5 | No significant nausea ([1]; 2.5 mg IV amisulpride): 1/5 | No emesis (vomiting/retching) ([1]; 7.5 mg IV amisulpride): 0/5 | No significant nausea ([1]; 7.5 mg IV amisulpride): 1/5 | No emesis (vomiting/retching) ([1]; 20 mg IV amisulpride): 3/18 | No significant nausea ([1]; 20 mg IV amisulpride): 12/18 | Protection from nausea, dose-relationship ([1]; IV amisulpride from 2.5 mg to 20 mg): positive dose-relationship | Delayed phase response (complete response 24-120 hrs after chemo), in words ([2]; 10 mg oral amisulpride days 2-4, acute-phase responders): significantly better than placebo | CR, 0-120 h [2, 3]: 36% | CR, 0-120 h (number of subjects) [2, 3]: 21 | CR, 24-120 h [2, 3]: 46% | CR, 24-120 h (number of subjects) [2, 3]: 27 | Nausea, 0-120 h [2, 3]: 68% | Nausea, 0-120 h (number of subjects) [2, 3]: 40 | Nausea, 24-120 h [2, 3]: 63% | Nausea, 24-120 h (number of subjects) [2, 3]: 37 | Rescue medication use, 0-120 h [2, 3]: 54% | Rescue medication use, 0-120 h (number of subjects) [2, 3]: 32 | Rescue medication use, 24-120 h [2, 3]: 41% | Rescue medication use, 24-120 h (number of subjects) [2, 3]: 26 | Vomiting, 0-120 h [2, 3]: 59% | Vomiting, 0-120 h (number of subjects) [2, 3]: 35 | Vomiting, 24-120 h [2, 3]: 46% | Vomiting, 24-120 h (number of subjects) [2, 3]: 27 | CR, 24-120 h ([2]; oral 10 mg AMI days 2-4 after IV OND + 20 mg AMI day 1, all subjects, listed as AMI): 46% | CR, 24-120 h [2, 4]: 75% | CR, 24-120 h (number of subjects) [2, 4]: 21 | Nausea, 24-120 h [2, 4]: 32% | Nausea, 24-120 h (number of subjects) [2, 4]: 9 | Rescue medication use, 24-120 h [2, 4]: 14% | Rescue medication use, 24-120 h (number of subjects) [2, 4]: 4 | Vomiting, 24-120 h [2, 4]: 21% | Vomiting, 24-120 h (number of subjects) [2, 4]: 6 | CR, 0-120 h [2, 5]: 25% | CR, 0-120 h (number of subjects) [2, 5]: 17 | CR, 24-120 h [2, 5]: 31% | CR, 24-120 h (number of subjects) [2, 5]: 21 | Nausea, 0-120 h [2, 5]: 72% | Nausea, 0-120 h (number of subjects) [2, 5]: 48 | Nausea, 24-120 h [2, 5]: 69% | Nausea, 24-120 h (number of subjects) [2, 5]: 46 | Rescue medication use, 0-120 h [2, 5]: 55% | Rescue medication use, 0-120 h (number of subjects) [2, 5]: 37 | Rescue medication use, 24-120 h [2, 5]: 54% | Rescue medication use, 24-120 h (number of subjects) [2, 5]: 36 | Vomiting, 0-120 h [2, 5]: 70% | Vomiting, 0-120 h (number of subjects) [2, 5]: 47 | Vomiting, 24-120 h [2, 5]: 55% | Vomiting, 24-120 h (number of subjects) [2, 5]: 37 | CR, 24-120 h [2, 6]: 57% | CR, 24-120 h (number of subjects) [2, 6]: 17 | Nausea, 24-120 h [2, 6]: 47% | Nausea, 24-120 h (number of subjects) [2, 6]: 14 | Rescue medication use, 24-120 h [2, 6]: 23% | Rescue medication use, 24-120 h (number of subjects) [2, 6]: 7 | Vomiting, 24-120 h [2, 6]: 43% | Vomiting, 24-120 h (number of subjects) [2, 6]: 13 | CR, 0-120 h [2, 7]: 27% | CR, 0-120 h (number of subjects) [2, 7]: 17 | CR, 24-120 h [2, 7]: 31% | CR, 24-120 h (number of subjects) [2, 7]: 20 | Nausea, 0-120 h [2, 7]: 77% | Nausea, 0-120 h (number of subjects) [2, 7]: 49 | Nausea, 24-120 h [2, 7]: 72% | Nausea, 24-120 h (number of subjects) [2, 7]: 46 | Rescue medication use, 0-120 h [2, 7]: 58% | Rescue medication use, 0-120 h (number of subjects) [2, 7]: 37 | Rescue medication use, 24-120 h [2, 7]: 56% | Rescue medication use, 24-120 h (number of subjects) [2, 7]: 36 | Vomiting, 0-120 h [2, 7]: 66% | Vomiting, 0-120 h (number of subjects) [2, 7]: 42 | Vomiting, 24-120 h [2, 7]: 58% | Vomiting, 24-120 h (number of subjects) [2, 7]: 37 | CR, 24-120 h [2, 8]: 47% | CR, 24-120 h (number of subjects) [2, 8]: 17 | Nausea, 24-120 h [2, 8]: 61% | Nausea, 24-120 h (number of subjects) [2, 8]: 22 | Rescue medication use, 24-120 h [2, 8]: 36% | Rescue medication use, 24-120 h (number of subjects) [2, 8]: 13 | Vomiting, 24-120 h [2, 8]: 47% | Vomiting, 24-120 h (number of subjects) [2, 8]: 17 | inhibiting cisplatin-induced emesis, dose dependence in words (cisplatin-induced emesis): less effective at higher dosages
